Source: patent publication US20170210751A1, “PRMT5 INHIBITORS AND USES THEREOF” (Epizyme, Inc., priority 2014, published 2017)
pEC50, pIC50: −log10 of the molar value.

Assays:
[1] = target: T1, PRMT5/MEP50 (Homo sapiens, UniProt O14744); assay: PRMT5 Biochemical Assay (PRMT5/MEP50 enzyme assay on peptide substrate, 3H-SAM Flashplate); details: PRMT5/MEP50 4 nM, 3H-SAM 75 nM, peptide 40 nM, 30 min preincubation at 25 degrees Celsius
T1 construct: Flag-PRMT5; made in house; host or cells: Spodoptera frugiperda (SF9) insect cells, baculovirus (pDEST8)
T1 sequence (O14744 with tags, fused parts or gaps): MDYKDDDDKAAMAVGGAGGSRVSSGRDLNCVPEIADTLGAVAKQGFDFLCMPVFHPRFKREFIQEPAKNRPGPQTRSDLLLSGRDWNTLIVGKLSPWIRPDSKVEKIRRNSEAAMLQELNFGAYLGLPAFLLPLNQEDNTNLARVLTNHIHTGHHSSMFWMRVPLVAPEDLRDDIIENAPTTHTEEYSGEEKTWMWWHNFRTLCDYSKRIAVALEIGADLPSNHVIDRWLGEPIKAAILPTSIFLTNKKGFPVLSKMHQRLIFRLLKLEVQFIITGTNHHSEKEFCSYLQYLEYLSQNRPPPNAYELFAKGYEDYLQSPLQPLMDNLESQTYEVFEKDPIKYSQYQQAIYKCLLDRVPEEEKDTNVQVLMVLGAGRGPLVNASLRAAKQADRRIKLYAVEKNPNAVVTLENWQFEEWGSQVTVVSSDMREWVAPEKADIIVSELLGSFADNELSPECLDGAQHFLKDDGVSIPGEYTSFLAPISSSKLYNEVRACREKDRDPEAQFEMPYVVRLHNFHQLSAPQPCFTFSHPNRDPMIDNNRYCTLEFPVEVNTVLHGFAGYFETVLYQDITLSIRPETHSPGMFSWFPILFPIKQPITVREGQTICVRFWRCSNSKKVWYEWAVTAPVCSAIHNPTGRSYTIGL
T1 sequence (Q9BQA1 with tags, fused parts or gaps partner limits assumed): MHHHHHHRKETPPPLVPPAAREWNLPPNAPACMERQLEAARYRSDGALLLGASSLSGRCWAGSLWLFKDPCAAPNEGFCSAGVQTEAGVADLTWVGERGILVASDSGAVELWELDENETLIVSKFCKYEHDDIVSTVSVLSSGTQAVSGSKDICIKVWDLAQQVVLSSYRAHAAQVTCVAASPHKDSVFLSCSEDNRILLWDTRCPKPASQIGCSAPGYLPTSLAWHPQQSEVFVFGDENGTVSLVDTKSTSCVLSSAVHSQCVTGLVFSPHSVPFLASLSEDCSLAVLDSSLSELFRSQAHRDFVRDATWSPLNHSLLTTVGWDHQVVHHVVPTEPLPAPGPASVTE
How it was run: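 FLAG-PRMT5/His-MEP50 from Sf9 cells (4 nM) preincubated 30 min at 25 °C with compounds, then reacted with 75 nM 3H-SAM and 40 nM biotinylated histone H4 1-15 peptide in Bicine pH 7.6, 1% DMSO. Stopped with 600 uM cold SAM; streptavidin Flashplate capture, scintillation counts; % inhibition fitted to 3- or 4-parameter curve.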

[2] = test system: Z-138 cell line; assay: Z-138 Proliferation Assay (Cell Titer Glo); type: cell-based; details: Homo sapiens, 120 h; Z-138 cells, 5 days incubation, ATP (Cell Titer Glo)
Text: Z-138 Proliferation Assay
Z-138 suspension cells were purchased from ATCC (American Type Culture Collection, Manassas, Va.). RPMI/Glutamax medium, penicillin-streptomycin, heat inactivated fetal bovine serum were purchased from Life Technologies, Grand Island, N.Y., USA. V-bottom polypropylene 384-well plates were purchased from Greiner Bio-One, Monroe, N.C., USA. Cell culture 384-well white opaque plates were purchased from Perkin Elmer, Waltham, Mass., USA. Cell-Titer Glo® was purchased from Promega Corporation, Madison, Wis., USA. SpectraMax M5 plate reader was purchased from Molecular Devices LLC, Sunnyvale, Calif., USA.
Z-138 suspension cells were maintained in growth medium (RPMI 1640 supplemented with 10% v/v heat inactivated fetal bovine serum and cultured at 37° C. under 5% CO2. Under assay conditions, cells were incubated in assay medium (RPMI 1640 supplemented with 10% v/v heat inactivated fetal bovine serum and 100 units/mL penicillin-streptomycin) at 37° C. under 5% CO2.
For the assessment of the effect of compounds on the proliferation of the Z-138 cell line, exponentially growing cells were plated in 384-well white opaque plates at a density of 10,000 cells/ml in a final volume of 50 μl of assay medium. A compound source plate was prepared by performing triplicate nine-point 3-fold serial dilutions in DMSO, beginning at 10 mM (final top concentration of compound in the assay was 20 μM and the DMSO was 0.2%). A 100 nL aliquot from the compound stock plate was added to its respective well in the cell plate. […] After addition of compounds, assay plates were incubated for 5 days at 37° C., 5% CO2, relative humidity >90%.
Cell viability was measured by quantitation of ATP present in the cell cultures, adding 35 μl of Cell Titer Glo® reagent to the cell plates. Luminescence was read in the SpectraMax M5 microplate reader. The concentration of compound inhibiting cell viability by 50% was determined using a 4-parametric fit of the normalized dose response curves.

CC(=O)N1CCC(Nc2cc(C(=O)NC[C@H](O)CN3CCc4scnc4C3)ncn2)CC1 [Compound 1-32]
pIC50 [1]: 5.00 to 6.00
pEC50 [2]: < 5.30

CC(=O)N1CCC(Nc2cc(C(=O)NC[C@H](O)CN3CCc4sc(C)nc4C3)ccn2)CC1 [Compound 1-33]
pIC50 [1]: 5.00 to 6.00
pEC50 [2]: < 5.30

CC(=O)N1CCC(Nc2cc(C(=O)NC[C@H](O)CN3CCc4sc(N)nc4C3)ccn2)CC1 [Compound 1-34]
pIC50 [1]: 6.00 to 7.00
pEC50 [2]: < 5.30

CC(=O)N1CCC(Nc2cc(C(=O)NC[C@H](O)CN3CCc4nc(N)sc4C3)ccn2)CC1 [Compound 1-35]
pIC50 [1]: 6.00 to 7.00
pEC50 [2]: < 5.30

CC(=O)N1CCC(Nc2cc(C(=O)NC[C@H](O)CN3CCc4sc(C)nc4C3)ncn2)CC1 [Compound 1-36]
pIC50 [1]: 5.00 to 6.00
pEC50 [2]: < 5.30

CC(=O)N1CCC(Nc2cc(C(=O)NC[C@H](O)CN3CCc4sc(N)nc4C3)ncn2)CC1 [Compound 1-37]
pIC50 [1]: 5.00 to 6.00
pEC50 [2]: < 5.30

CC(=O)N1CCC(Nc2cc(C(=O)NC[C@H](O)CN3CCc4nc(N)sc4C3)ncn2)CC1 [Compound 1-38]
pIC50 [1]: 5.00 to 6.00
pEC50 [2]: < 5.30

O=C(COc1cccc2cccnc12)NCC(O)CN1CCc2cccnc2C1 (stereo not drawn) [Compound 2-5, N-[2-hydroxy-3-(5,6,7,8-tetrahydro-1,7-naphthyridin-7-yl)propyl]-2-(quinolin-8-yloxy)acetamide]
pIC50 [1]: 5.00 to 6.00
pEC50 [2]: < 5.30

O=C(COc1cccc2cccnc12)NCC(O)CN1CCc2ncccc2C1 (stereo not drawn) [Compound 2-6, N-[2-hydroxy-3-(5,6,7,8-tetrahydro-1,6-naphthyridin-6-yl)propyl]-2-(quinolin-8-yloxy)acetamide]
pIC50 [1]: 5.00 to 6.00
pEC50 [2]: < 5.30

O=C(COc1cccc2cccnc12)NCC(O)CN1CCc2cnccc2C1 (stereo not drawn) [Compound 2-7, N-[2-hydroxy-3-(1,2,3,4-tetrahydro-2,6-naphthyridin-2-yl)propyl]-2-(quinolin-8-yloxy)acetamide]
pIC50 [1]: 5.00 to 6.00
pEC50 [2]: < 5.30

O=C(COc1cccc2cccnc12)NCC(O)CN1CCc2ccncc2C1 (stereo not drawn) [Compound 2-8, N-[2-hydroxy-3-(1,2,3,4-tetrahydro-2,7-naphthyridin-2-yl)propyl]-2-(quinolin-8-yloxy)acetamide]
pIC50 [1]: 5.00 to 6.00
pEC50 [2]: < 5.30

CC(=O)N1CC(Nc2cc(C(=O)NC[C@H](O)CN3CCc4ncccc4C3)ncn2)C1 [Compound 2-9, (S)-6-((1-acetylazetidin-3-yl)amino)-N-(3-(7,8-dihydro-1,6-naphthyridin-6(5H)-yl)-2-hydroxypropyl)pyrimidine-4-carboxamide]
pIC50 [1]: 6.00 to 7.00
pEC50 [2]: < 5.30

CC(=O)N1CCC(Nc2cc(C(=O)NC[C@H](O)CN3CCc4cccnc4C3)ncn2)CC1 [Compound 2-11, (S)-6-((1-acetylpiperidin-4-yl)amino)-N-(3-(5,6-dihydro-1,7-naphthyridin-7(8H)-yl)-2-hydroxypropyl)pyrimidine-4-carboxamide]
pIC50 [1]: 6.00 to 7.00
pEC50 [2]: < 5.30

O=C(NC[C@H](O)CN1CCc2ncccc2C1)c1cc(NC2COC2)ncn1 [Compound 2-12, (S)—N-(3-(7,8-dihydro-1,6-naphthyridin-6(5H)-yl)-2-hydroxypropyl)-6-(oxetan-3-ylamino)pyrimidine-4-carboxamide]
pIC50 [1]: 6.00 to 7.00
pEC50 [2]: 5.00 to 6.00

CC(=O)N1CC(Nc2cc(C(=O)NC[C@H](O)CN3CCc4cccnc4C3)ncn2)C1 [Compound 2-13]
pIC50 [1]: 6.00 to 7.00
pEC50 [2]: 5.00 to 6.00

CC(=O)N1CCC(Nc2cc(C(=O)NC[C@H](O)CN3CCc4ncccc4C3)ncn2)CC1 [Compound 2-14, (S)-6-((1-acetylpiperidin-4-yl)amino)-N-(3-(7,8-dihydro-1,6-naphthyridin-6(5H)-yl)-2-hydroxypropyl)pyrimidine-4-carboxamide]
pIC50 [1]: > 7.00
pEC50 [2]: 5.00 to 6.00

O=C(NC[C@H](O)CN1CCc2cnccc2C1)c1cc(NC2COC2)ncn1 [Compound 2-15]
pIC50 [1]: 5.00 to 6.00
pEC50 [2]: < 5.30

CC(=O)N1CC(Nc2cc(C(=O)NC[C@H](O)CN3CCc4cnccc4C3)ncn2)C1 [Compound 2-16]
pIC50 [1]: 6.00 to 7.00
pEC50 [2]: < 5.30

CC(=O)N1CCC(Nc2cc(C(=O)NC[C@H](O)CN3CCc4cnccc4C3)ncn2)CC1 [Compound 2-17, (S)-6-((1-acetylpiperidin-4-yl)amino)-N-(3-(3,4-dihydro-2,6-naphthyridin-2(1H)-yl)-2-hydroxypropyl)pyrimidine-4-carboxamide]
pIC50 [1]: 6.00 to 7.00
pEC50 [2]: < 5.30

CC(=O)N1CCC(Nc2cc(C(=O)NC[C@H](O)CN3CCc4cnccc4C3)ccn2)CC1 [Compound 2-18]
pIC50 [1]: 6.00 to 7.00
pEC50 [2]: 6.00 to 7.00

CC(=O)N1CCC(Nc2cc(C(=O)NC[C@H](O)CN3CCc4ccncc4C3)ccn2)CC1 [Compound 2-19, (S)-2-((1-acetylpiperidin-4-yl)amino)-N-(3-(3,4-dihydro-2,7-naphthyridin-2(1H)-yl)-2-hydroxypropyl)isonicotinamide]
pIC50 [1]: 6.00 to 7.00
pEC50 [2]: < 5.30

CC(=O)N1CCC(Nc2cc(C(=O)NC[C@H](O)CN3CCc4ncccc4C3)ccn2)CC1 [Compound 2-20, (S)-2-((1-acetylpiperidin-4-yl)amino)-N-(3-(7,8-dihydro-1,6-naphthyridin-6(5H)-yl)-2-hydroxypropyl)isonicotinamide]
pIC50 [1]: 6.00 to 7.00
pEC50 [2]: < 5.30

CC(=O)N1CCC(Nc2cc(C(=O)NC[C@H](O)CN3CCc4cccnc4C3)ccn2)CC1 [Compound 2-21, (S)-2-((1-acetylpiperidin-4-yl)amino)-N-(3-(5,6-dihydro-1,7-naphthyridin-7(8H)-yl)-2-hydroxypropyl)isonicotinamide]
pIC50 [1]: 6.00 to 7.00
pEC50 [2]: < 5.30

CC(=O)N1CC(Nc2cc(C(=O)NC[C@H](O)CN3CCc4ccncc4C3)ncn2)C1 [Compound 2-22]
pIC50 [1]: 5.00 to 6.00
pEC50 [2]: < 5.30

CC(=O)N1CCC(Nc2cc(C(=O)NC[C@H](O)CN3CCc4ccncc4C3)ncn2)CC1 [Compound 2-23, (S)-6-((1-acetylpiperidin-4-yl)amino)-N-(3-(3,4-dihydro-2,7-naphthyridin-2(1H)-yl)-2-hydroxypropyl)pyrimidine-4-carboxamide]
pIC50 [1]: 5.00 to 6.00
pEC50 [2]: < 5.30

O=C(NC[C@H](O)CN1CCc2ccncc2C1)c1cc(NC2COC2)ncn1 [Compound 2-24]
pIC50 [1]: 5.00 to 6.00
pEC50 [2]: < 5.30

O=C(COc1cccc2cccnc12)NCC(O)CN1CCc2nc[nH]c2C1 (stereo not drawn) [Compound 3-10, N-(2-hydroxy-3-{3H,4H,5H,6H,7H-imidazo[4,5-c]pyridin-5-yl}propyl)-2-(quinolin-8-yloxy)acetamide]
pIC50 [1]: < 5.00
pEC50 [2]: < 5.30

CC(=O)N1CC(Nc2cc(C(=O)NC[C@H](O)CN3CCc4[nH]nc(-c5ccccc5)c4C3)ncn2)C1 [Compound 3-11, (S)-6-((1-acetylazetidin-3-yl)amino)-N-(2-hydroxy-3-(3-phenyl-6,7-dihydro-1H-pyrazolo[4,3-c]pyridin-5(4H)-yl)propyl)pyrimidine-4-carboxamide]
pIC50 [1]: 5.00 to 6.00
pEC50 [2]: < 5.30

CC(=O)N1CCC(Nc2cc(C(=O)NC[C@H](O)CN3CCc4[nH]nc(-c5ccccc5)c4C3)ncn2)CC1 [Compound 3-12, (S)-6-((1-acetylpiperidin-4-yl)amino)-N-(2-hydroxy-3-(3-phenyl-6,7-dihydro-1H-pyrazolo[4,3-c]pyridin-5(4H)-yl)propyl)pyrimidine-4-carboxamide]
pIC50 [1]: < 5.00
pEC50 [2]: < 5.30

O=C(NC[C@H](O)CN1CCc2[nH]nc(-c3ccccc3)c2C1)c1cc(NC2COC2)ncn1 [Compound 3-17, (S)—N-(2-hydroxy-3-(3-phenyl-6,7-dihydro-1H-pyrazolo[4,3-c]pyridin-5(4H)-yl)propyl)-6-(oxetan-3-ylamino)pyrimidine-4-carboxamide]
pIC50 [1]: < 5.00
pEC50 [2]: < 5.30

CC(=O)N1CCC(Nc2cc(C(=O)NC[C@H](O)CN3CCc4[nH]ncc4C3)ccn2)CC1 [Compound 3-21]
pIC50 [1]: 5.00 to 6.00
pEC50 [2]: < 5.30

CC(=O)N1CCC(Nc2cc(C(=O)NC[C@H](O)CN3CCc4c(ncn4C)C3)ccn2)CC1 [Compound 3-22, (S)-2-((1-acetylpiperidin-4-yl)amino)-N-(2-hydroxy-3-(1-methyl-6,7-dihydro-1H-imidazo[4,5-c]pyridin-5(4H)-yl)propyl)isonicotinamide]
pIC50 [1]: < 5.00
pEC50 [2]: < 5.30

CC(=O)N1CC(Nc2cc(C(=O)NC[C@H](O)CN3CCc4[nH]ncc4C3)ncn2)C1 [Compound 3-23]
pIC50 [1]: 5.00 to 6.00
pEC50 [2]: < 5.30
